Results taken from paper PMC9841592 (ACS Medicinal Chemistry Letters, 2022).
Entries after “also recorded” stand apart in the source; their conditions may differ. Like-named read-outs stand apart in the source and are kept apart here. Marks after values point to notes of the source that are not given here.

Tests used:
[1] = molecular target: T1, hERG (Homo sapiens, UniProt Q12809); details: for hERG ion channel inhibition (in words): hERG inhibition binding assay
[2] = system: GH secretion and IGF-1; details: cited from earlier work; for effect on IGF-1 levels / effect on GHRH-stimulated GH secretion: Phase 1, healthy volunteers; for effect on IGF-1 levels: over several days
[3] = system: IGF-1; details: Phase 2, acromegaly patients switched to oral paltusotine; cited from earlier work
[4] = system: plasma IGF-1; assay: Plasma IGF-1 after repeated daily oral dosing in rats; type: in vivo, rat; details: male SD rats
[5] = system: plasma IGF-1; assay: Plasma IGF-1 after repeated daily oral dosing in dogs; type: in vivo, dog; details: p < 0.05
[6] = healthy human volunteers, Phase 1 study; cited from earlier work
[7] = molecular target: T1, hERG; assay: Patch-clamp hERG assay; type: cell-based
[8] = molecular target: Human SST2 (Homo sapiens, UniProt P30874); type: cell-based
Sequence of Human SST2 (P30874 whole entry): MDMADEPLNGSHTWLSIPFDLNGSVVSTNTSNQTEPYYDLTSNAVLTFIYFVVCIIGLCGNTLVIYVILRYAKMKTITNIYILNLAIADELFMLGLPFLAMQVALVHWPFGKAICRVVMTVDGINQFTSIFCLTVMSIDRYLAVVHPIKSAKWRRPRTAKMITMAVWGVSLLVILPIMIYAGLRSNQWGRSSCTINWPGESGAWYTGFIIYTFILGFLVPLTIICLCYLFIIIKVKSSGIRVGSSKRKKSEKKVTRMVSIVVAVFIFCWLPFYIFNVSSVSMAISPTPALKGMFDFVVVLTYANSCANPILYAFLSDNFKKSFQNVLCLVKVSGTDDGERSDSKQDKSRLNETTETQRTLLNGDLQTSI

T1 sequence (Q12809 whole entry): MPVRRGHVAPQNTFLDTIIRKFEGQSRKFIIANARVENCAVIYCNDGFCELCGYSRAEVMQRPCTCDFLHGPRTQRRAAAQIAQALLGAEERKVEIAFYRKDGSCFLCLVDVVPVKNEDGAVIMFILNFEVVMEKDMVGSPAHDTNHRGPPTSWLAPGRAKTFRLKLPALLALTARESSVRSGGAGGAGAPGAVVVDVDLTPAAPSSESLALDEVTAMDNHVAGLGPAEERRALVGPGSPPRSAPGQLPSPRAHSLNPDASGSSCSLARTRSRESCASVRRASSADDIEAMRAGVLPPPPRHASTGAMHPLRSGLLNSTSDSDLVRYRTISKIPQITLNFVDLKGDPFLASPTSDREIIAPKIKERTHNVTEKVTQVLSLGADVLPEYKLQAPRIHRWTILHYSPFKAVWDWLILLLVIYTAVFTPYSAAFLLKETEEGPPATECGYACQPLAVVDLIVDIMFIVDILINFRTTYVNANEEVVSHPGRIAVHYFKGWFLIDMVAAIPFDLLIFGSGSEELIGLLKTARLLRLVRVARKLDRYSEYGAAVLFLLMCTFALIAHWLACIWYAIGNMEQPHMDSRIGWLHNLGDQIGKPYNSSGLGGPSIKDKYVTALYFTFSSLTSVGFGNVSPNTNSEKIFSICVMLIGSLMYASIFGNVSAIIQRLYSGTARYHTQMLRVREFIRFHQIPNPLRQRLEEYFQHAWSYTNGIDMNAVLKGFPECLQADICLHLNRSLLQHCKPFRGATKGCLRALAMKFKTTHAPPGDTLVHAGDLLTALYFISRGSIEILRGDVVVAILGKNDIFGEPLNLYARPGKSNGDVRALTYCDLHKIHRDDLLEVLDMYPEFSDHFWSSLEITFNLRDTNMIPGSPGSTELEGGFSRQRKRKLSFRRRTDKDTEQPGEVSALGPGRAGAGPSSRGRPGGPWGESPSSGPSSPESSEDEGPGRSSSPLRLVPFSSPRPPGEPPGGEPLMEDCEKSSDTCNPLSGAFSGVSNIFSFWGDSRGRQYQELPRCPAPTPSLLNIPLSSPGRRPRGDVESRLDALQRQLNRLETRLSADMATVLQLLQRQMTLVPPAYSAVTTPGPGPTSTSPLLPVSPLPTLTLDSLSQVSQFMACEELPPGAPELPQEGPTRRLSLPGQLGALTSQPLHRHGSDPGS

In the case of `N#Cc1cc(F)cc(-c2ccc3ncc(-c4cc(F)cc(F)c4)c(N4CCC(N)CC4)c3c2)c1O` [Compound 24], the “hERG ion channel inhibition (in words)” value [1] is reported as “weak inhibitors”.

In the case of `N#Cc1cccc(-c2ccc3ncc(-c4cc(F)cc(F)c4)c(N4CCC(N)CC4)c3c2)c1O` [Compound 22, 3-[4-(4-aminopiperidin-1-yl)-3-(3,5-difluorophenyl)quinolin-6-yl]-2-hydroxybenzonitrile], the “effect on IGF-1 levels” value ([2]; listed as Paltusotine) is given as “dose-dependent reduction”, the “effect on IGF-1 levels” value ([2]; listed as paltusotine) is given as “lowered IGF-1 levels” and the “effect on GHRH-stimulated GH secretion” value ([2]; listed as Paltusotine) is given as “dose-dependent reduction”. The “effect on GHRH-stimulated GH secretion” value ([2]; listed as paltusotine) was “acutely suppressed”, the tolerability ([2]; double-blind placebo-controlled Phase 1 trial, healthy volunteers) was “good tolerability” and the “effect on IGF-1 levels after switch from injected depots” value [3] was “maintain IGF-1 levels”. The “hERG pIC50±SEM” value ([1]; hERG binding assay) was <5 ^c, the “hERG ion channel inhibition (in words)” value [1] was “weak inhibitors; also recorded: no direct inhibition” and the “suppression of plasma IGF-1 relative to vehicle” value ([4]; 10 mg/kg/day po for 14 days, days 2, 10 and 14, p < 0.05) was “significantly suppressed”. For the same compound, the “suppression of plasma IGF-1 relative to vehicle” value ([4]; 30 mg/kg/day po for 14 days, all days measured, p < 0.05) was “significantly suppressed”, the “suppression of plasma IGF-1 relative to vehicle, day 1” value ([5]; male and female beagle dogs, 150 mg/kg/day po) was “significantly suppressed” and the “suppression of plasma IGF-1 compared to vehicle, day 7” value ([5]; male and female beagle dogs, 6, 30 and 150 mg/kg/day po for 7 days) was “significantly suppressed”. The oral bioavailability [6] was ~70%, the IC50 [7] was 9.9 µM and the “selectivity for SST2 over other SST receptor subtypes” value [8] was > 1000 fold.

For `N#Cc1cccc(-c2ccc3ncc(-c4cccc(F)c4)c(N4CCC(N)CC4)c3c2)c1O` [Compound 25], the “hERG ion channel inhibition (in words)” value [1] was “weak inhibitors”.
